# Test results published in patent US20220054494A1, “METHODS FOR TREATING BLADDER AND URETHRA DYSFUNCTION AND DISEASE” (University of Pittsburgh - Of the Commonwealth System of …, priority 2019, published 2022).
# “Also recorded” adds a separate entry of the source.
# Experiments:
# [1] = system: cathepsin B; test: Western immunoblotting, cathepsin B; type: in vivo, rat; settings: aged rats; oral 8-AG 5 mg/kg/day, 6 weeks
# Experimental: Western immunoblotting: Following the testing paradigms, rats were deeply anesthetized, bladders as well as the proximal urethra were removed, and one half of each preparation was homogenized using Lysing Matrix D in a FastPrep 24 instrument (MP Biomedicals, Solon, Ohio) in HBSS [5 mM KCl, 0.3 mM KH2PO4, 138 mM NaCl, 4 mM NaHO3, 0.3 mM Na2HCO3, 0.3 mM Na2HPO4, 5.6 mM glucose, and 10 mM Hepes, pH 7.4 containing a complete protease inhibitor cocktail (1 tablet/10 ml, ROCHE®, Indianapolis, Ind.) and a phosphatase inhibitor cocktail (SIGMA®, 1:100)]. After centrifugation (13000 rpm; 15 min at 4° C.), the membrane protein fraction was prepared by suspending the membrane pellets in lysis buffer containing 0.3 M NaCl, 50 mM Tris-HCl (pH 7.6), and 0.5% Triton X-100 and the same concentration of protease inhibitors as above. The suspensions were incubated on ice and centrifuged (13000 rpm; 15 min at 4° C.). The protein concentrations of the combined supernatants were determined using the PIERCE® BCA protein assay (THERMO SCIENTIFIC®, Rockford, Ill.). […] As a loading control, total protein per sample was determined using Bio-Rad Stain Free SDS-PAGE gel technology. UV-activated protein fluorescence was imaged on a CHEMIDOC® MP (BIO-RAD®). […] The volume (intensity) of each protein species was determined and normalized to total protein using Image Lab software (BIO-RAD®). […]
# [2] = system: bladder smooth muscle; test: Transmission electron microscopy of bladder smooth muscle; type: in vivo, rat
# Excerpt: Transmission electron microscopy (TEM): The other half of each urinary bladder from each group (young, aged, and aged+treatment) were fixed in cold 2.5% glutaraldehyde in 0.01 M PBS. The specimens were rinsed in PBS, post-fixed in 1% osmium tetroxide with 1% potassium ferricyanide, rinsed in PBS, dehydrated through a graded series of ethanol and propylene oxide, and embedded in POLY/BED® 812 (Luft formulations). Semi-thin (300 nm) sections were cut on a LEICA® Reichart Ultracut, stained with 0.5% toluidine blue in 1% sodium borate and examined under the light microscope. Ultrathin sections (65 nm) were stained with uranyl acetate and Reynold's lead citrate and examined on JEOL 1400 transmission electron microscope with a side mount AMT 2k digital camera (Advanced Microscopy Techniques, Danvers, Mass.).
# (§1) Transmission electron microscopy (TEM): The other half of each urinary bladder, proximal urethra, or external urethral sphincter from each group (young, aged, aged+8-AG treatment) was fixed in cold 2.5% glutaraldehyde in 0.01 M PBS. The specimens were rinsed in PBS, post-fixed in 1% osmium tetroxide with 1% potassium ferricyanide, rinsed in PBS, dehydrated through a graded series of ethanol and propylene oxide solutions, and embedded in POLY/BED® 812 (Luft formulations). Semi-thin (300 nm) sections were cut on a LEICA® Reichart Ultracut, stained with 0.5% Toluidine Blue in 1% sodium borate and examined under the light microscope. Ultrathin sections (65 nm) were stained with uranyl acetate as well as Reynold's lead citrate and examined on a JEOL 1400 transmission electron microscope with a side mount AMT 2k digital camera (Advanced Microscopy Techniques, Danvers, Mass.).
# as §1, with “Half” for “The other half”, “bladder” for “bladder, proximal urethra, or external urethral sphincter”, “borate,” for “borate”, “and” for “as well as”
# [3] = aged Fisher 344 rats, 8-AG 5 mg kg/day via drinking water, 1 month
# [4] = aged rats, oral 8-AG 5 mg/kg/day, 6 weeks
smiles,measurement,setting,value
"Nc1nc2[nH]c(N)nc2c(=O)[nH]1 [8-AG, 8-Aminoguanine]",cathepsin B expression in urethra,[1],trend toward reversal
same,detrusor smooth muscle morphology (separation and degeneration of cells),[2]; [3],restored to a younger state; also recorded: restored to levels similar to the younger state
same,swelling and disruption of smooth muscle mitochondria,[2]; [3],restored to a younger state; also recorded: restored to levels similar to the younger state
same,bladder smooth muscle mitochondrial abnormalities,"[2]; aged rats, intravesical 100 μM 8-AG plus 10 μM DEA-NONOate, daily infusion 3-6 weeks",normalized; also recorded: restored
same,detrusor smooth muscle morphology (structural anomalies),[2]; [4],reversed; also recorded: restored to a younger state
same,swelling and disruption of smooth muscle mitochondria,[2]; [4],reversed; also recorded: restored to a younger state
